Some test systems named below: A549 NSCLC; COLO 205 colon; HOP-62 NSCLC; K-562 leukemia; A498 renal; HT29 colon; SK-MEL-28 melanoma; NCI/ADR-RES ovarian; MCF7 breast.
Test in all cases: NCI anticancer screen, dose series, 48 h

Molecules are shown by their SMILES.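 1) Cells in 96-well plates. 2) Compound, 48 h, 5 concentrations. 3) Linear interpolation between surrounding doses. 4) Unreached endpoint = highest concentration. GI50: concentration for 50% inhibition of growth. The concentration for full growth arrest is given as TGI.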 Bounds are passed on as bounds.

As for `COC1=CC(=O)C2C(C1=O)C(c1ccccc1)[C@H]2C` (some centres not stated), the TGI in the assay on A549 NSCLC, in the assay on COLO 205 colon, in the assay on HOP-62 NSCLC, in the assay on K-562 leukemia, with A498 renal and in the assay on HT29 colon was above 100 µM each time. Besides, the TGI in the assay on SK-MEL-28 melanoma was above 100 µM.
Turning to `C/C=C/CC(C)[C@@H](O)[C@H](NC)C(=O)O` (some centres not stated), the TGI with A549 NSCLC, in the assay on COLO 205 colon, with HOP-62 NSCLC, in the assay with K-562 leukemia, in the assay on HT29 colon and in the assay with SK-MEL-28 melanoma was above 100 µM throughout.
Take `CCOc1cccc2ccc[n+](CC)c12`: the TGI with A549 NSCLC, with COLO 205 colon, in the assay with HOP-62 NSCLC, with K-562 leukemia, in the assay on HT29 colon and in the assay with SK-MEL-28 melanoma was above 100 µM in each case.
On to `O=[N+]([O-])C1Cc2ccccc2OC1c1ccccc1` (configuration not stated), for which the TGI with A549 NSCLC was above 100 µM; in the assay with COLO 205 colon, above 100 µM; with HOP-62 NSCLC, 83.2 µM; with K-562 leukemia, above 100 µM; in the assay on A498 renal it was above 100 µM; in the assay with HT29 colon, above 100 µM. For the same compound, the TGI in the assay on SK-MEL-28 melanoma is above 100 µM.
Take `COc1cc(CNC2c3cc4c(cc3C(c3cc(OC)c(OC)c(OC)c3)[C@H]3C(=O)OCC23)OCO4)cc(OC)c1OC` (some centres not stated): the TGI was above 100 µM in the assay with A549 NSCLC; 0.37 µM in the assay with COLO 205 colon; 0.631 µM in the assay on HOP-62 NSCLC; above 100 µM in the assay on K-562 leukemia; 0.762 µM in the assay with A498 renal; 19.5 µM in the assay with HT29 colon.
On to `CC(=O)OC1CC2C(C)(C)C(=O)C=C[C@]2(C)C2CCC3(C)C(=CC(=O)C3c3ccoc3)[C@]12C` (some centres not stated), for which the TGI with A549 NSCLC was 41 µM; in the assay on COLO 205 colon it was 34.6 µM; in the assay with HOP-62 NSCLC, 31.1 µM; with K-562 leukemia, above 100 µM; in the assay on A498 renal it was 33.9 µM; in the assay on HT29 colon, 32.1 µM. In the assay with SK-MEL-28 melanoma, this compound yielded a TGI of 32.6 µM.
On to `SCCSCCCSCCS`, for which the TGI in the assay on A549 NSCLC, with COLO 205 colon, with HOP-62 NSCLC, with NCI/ADR-RES ovarian, in the assay on K-562 leukemia and in the assay with HT29 colon was above 100 µM throughout. Besides, the TGI with MCF7 breast and with SK-MEL-28 melanoma was above 100 µM in each case.
As for `CN(C)C=C1C(Cl)=C(C=O)CC(C=O)=C1Cl`, the TGI is above 100 µM in the assay with A549 NSCLC; 30.6 µM with COLO 205 colon; 51.7 µM in the assay with HOP-62 NSCLC; 13.8 µM in the assay with K-562 leukemia; 30 µM in the assay on HT29 colon; 22.6 µM in the assay on SK-MEL-28 melanoma.
As to `CCc1cccc(CC)c1NC(=O)C1=C(C)NC(C)=C(C(=O)Nc2c(CC)cccc2CC)C1c1ccc([N+](=O)[O-])cc1`, the TGI in the assay on A549 NSCLC is above 100 µM; in the assay with COLO 205 colon, 54.5 µM; with HOP-62 NSCLC, above 100 µM; with K-562 leukemia, 93.5 µM; in the assay with A498 renal, 64 µM; with HT29 colon, 40 µM. The compound further yielded a TGI with SK-MEL-28 melanoma of 39.9 µM.
In the case of `Cc1cc(Cl)ccc1NC(=O)C(=O)C(C(=O)c1ccc2ccccc2c1)C1OC(=O)c2ccccc21` (configuration not stated), the TGI with A549 NSCLC was determined as 94.5 µM; in the assay with COLO 205 colon it was 28.5 µM; with HOP-62 NSCLC, 26.6 µM; in the assay on K-562 leukemia, 33.8 µM; in the assay with A498 renal, 25.6 µM; in the assay on HT29 colon, 72.6 µM. In addition, the TGI with SK-MEL-28 melanoma stood at 54.5 µM.
As for `Cc1c(C(=O)/C=C/c2ccc(N(C)C)cc2)c(=O)n(-c2ccccc2)n1C`, the TGI in the assay with A549 NSCLC, with COLO 205 colon, in the assay with A498 renal, in the assay on HT29 colon and in the assay with SK-MEL-28 melanoma was above 100 µM in each case.
Turning to `O=Cc1ccc(-c2ccc(-c3nc4ccccc4o3)cc2)o1`, the GI50 with A549 NSCLC is 58.9 µM; in the assay on COLO 205 colon it was 46.9 µM; in the assay on HOP-62 NSCLC, 49.2 µM; with NCI/ADR-RES ovarian, 18.3 µM; in the assay with K-562 leukemia it was 23.6 µM; in the assay with A498 renal it was 21.2 µM. Moreover, the GI50 in the assay on HT29 colon is 53.2 µM; with MCF7 breast, 14.8 µM; with SK-MEL-28 melanoma, 64.5 µM. In addition, the TGI in the assay on A549 NSCLC was above 100 µM; in the assay with COLO 205 colon, above 100 µM; in the assay on HOP-62 NSCLC, above 100 µM; in the assay on NCI/ADR-RES ovarian it was 63.8 µM; in the assay on K-562 leukemia, above 100 µM; in the assay with A498 renal it was above 100 µM. Also, the TGI in the assay on HT29 colon, in the assay with MCF7 breast and in the assay on SK-MEL-28 melanoma was above 100 µM in each case.
With `COC(=O)C1[C@H](c2cc(OC)c(OC)c(OC)c2)OC(=O)C1(C(=O)OC)C(=O)c1ccc2c(c1)OCO2` (some centres not stated), the TGI in the assay on A549 NSCLC, in the assay on COLO 205 colon, in the assay with HOP-62 NSCLC, with K-562 leukemia, in the assay with A498 renal and with HT29 colon was above 100 µM in each case. Besides, in the assay with SK-MEL-28 melanoma, the TGI was above 100 µM.
Turning to `O=[N+]([O-])CCc1cccc([N+](=O)[O-])c1`, the TGI in the assay on A549 NSCLC, in the assay on COLO 205 colon, with HOP-62 NSCLC, with K-562 leukemia, with A498 renal and in the assay with HT29 colon was above 100 µM each time. In the assay on SK-MEL-28 melanoma, the TGI was above 100 µM.
In the case of `Cc1cc(=O)oc2c(C)c(OCCCOc3ccc4c(C)cc(=O)oc4c3C)ccc12`, the TGI in the assay with A549 NSCLC, in the assay with HOP-62 NSCLC, with K-562 leukemia, in the assay on A498 renal, in the assay with HT29 colon and in the assay on SK-MEL-28 melanoma was above 100 µM throughout.
For `Cc1cc(N(CCC#N)S(C)(=O)=O)ccc1C=Nc1ccc(C(=O)NN2C(=O)/C(=C/c3ccc(N(CCC#N)CCC#N)cc3C)N=C2c2cc([N+](=O)[O-])ccc2Cl)cc1`, the TGI with A549 NSCLC, with COLO 205 colon, with HOP-62 NSCLC, in the assay with K-562 leukemia, in the assay with A498 renal and in the assay with HT29 colon was above 100 µM throughout. In the assay on SK-MEL-28 melanoma, this compound came in with a TGI above 100 µM.
